Measurements from patent US20060069132A1, “Azolecarboxamide herbicides” (priority 2004, published 2006).

What was measured:
[1] = test system: redroot pigweed; test: Test A pre-/postemergence herbicide test; type: in vivo, Amaranthus retroflexus
Outline: (§1)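 Greenhouse injury scoring (0–100, complete control = 100) at approximately ten days follows simultaneous pre- and postemergence application. Soil received a directed spray after seeding; seedlings of 2–10 cm at the one- to two-leaf stage were sprayed to runoff.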

[2] = test system: pigweed; test: Test B pre-/postemergence herbicide test; type: in vivo, Amaranthus retroflexus
Outline: (§2)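 Evaluation is visual, comparing treated with control plants on a scale where 0 means no effect and 100 means full control. Treatments were preemergence, or postemergence on seedlings 2–18 cm tall, and held 13–15 days in the greenhouse.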

[3] = test system: rice; test: Test B pre-/postemergence herbicide test; type: in vivo, Oryza sativa; settings: preemergence
Outline: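 Plants compared with untreated controls 13–15 days post-treatment and given a visual 0–100 injury score. Applications: preemergence to seeds; postemergence at 1- to 4-leaf (2–18 cm); paddy species flooded, 2-leaf stage. Vehicle non-phytotoxic, surfactant included.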

[4] = test system: cocklebur; test: Test B pre-/postemergence herbicide test; type: in vivo, Xanthium strumarium
Outline: (§3)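 Seeds were planted and treated preemergence with compounds formulated in a non-phytotoxic solvent mixture containing surfactant, while plants at the 1- to 4-leaf stage (2 to 18 cm) received postemergence sprays. Flooded paddy plants were grown to the 2-leaf stage. After 13 to 15 days in a greenhouse, injury was visually rated 0–100 against untreated controls.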

[5] = test system: corn; test: Test B pre-/postemergence herbicide test; type: in vivo, Zea mays
Outline: as §2

[6] = test system: barnyardgrass; test: Test A pre-/postemergence herbicide test; type: in vivo, Echinochloa crus-galli
Outline: as §1

[7] = test system: giant foxtail; test: Test A pre-/postemergence herbicide test; type: in vivo, Setaria faberi
Outline: as §1

[8] = test system: wheat; test: Test B postemergence herbicide test; type: in vivo, Triticum aestivum; set-up: key to Wheat plant response rating: 0 = no effect, 100 = complete control; settings: scale 0 (no effect) to 100 (complete control)
Outline: (§4)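 Each value is a visual 0–100 response rating taken against controls 13 to 15 days after treatment in the greenhouse. Plants received formulated chemical postemergence at the 1- to 4-leaf stage or, in flooded paddy, at the 2-leaf stage.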

[9] = test system: ducksalad; test: Test B flooded paddy test; type: in vivo, Heteranthera limosa; settings: 1000 g ai/ha, visual rating, scale 0 to 100 (0 no effect, 100 complete control), 13 to 15 days
Outline: (§5)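 Postemergence plants were sprayed with formulated test chemicals at 2 to 18 cm height (1- to 4-leaf stage); paddy species were grown to the 2-leaf stage. After 13 to 15 days in a greenhouse, injury was rated visually against untreated controls on a 0–100 scale (0 = no effect, 100 = complete control).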

[10] = test system: morningglory; test: Test B pre-/postemergence herbicide test; type: in vivo, Ipomoea coccinea
Outline: as §3

[11] = test system: rice; test: Test B flooded paddy test; type: in vivo, Oryza sativa; settings: 1000 g ai/ha, visual rating, scale 0 to 100 (0 no effect, 100 complete control), 13 to 15 days
Outline: as §4

[12] = test system: barnyardgrass; test: Test B pre-/postemergence herbicide test; type: in vivo, Echinochloa crus-galli
Outline: as §3

[13] = test system: morningglory; test: Test A pre-/postemergence herbicide test; type: in vivo, Ipomoea spp.
Outline: as §1

[14] = test system: small flower umbrella sedge; test: Test B flooded paddy test; type: in vivo, Cyperus difformis; settings: 1000 g ai/ha, visual rating, scale 0 to 100 (0 no effect, 100 complete control), 13 to 15 days
Outline: as §5

[15] = test system: large crabgrass; test: Test B pre-/postemergence herbicide test; type: in vivo, Digitaria sanguinalis
Outline: as §2

[16] = test system: velvetleaf; test: Test A pre-/postemergence herbicide test; type: in vivo, Abutilon theophrasti
Outline: as §1

[17] = test system: Surinam grass; test: Test B pre-/postemergence herbicide test; type: in vivo, Urochloa decumbens
Outline: as §2

[18] = test system: blackgrass; test: Test B postemergence herbicide test; type: in vivo, Alopecurus myosuroides; settings: scale 0 (no effect) to 100 (complete control)
Outline: as §5

[19] = test system: barnyardgrass; test: Test B flooded paddy test; type: in vivo, Echinochloa crus-galli; settings: 1000 g ai/ha, visual rating, scale 0 to 100 (0 no effect, 100 complete control), 13 to 15 days
Outline: as §5

[20] = test system: velvetleaf; test: Test B pre-/postemergence herbicide test; type: in vivo, Abutilon theophrasti
Outline: as §2

[21] = test system: wild oat; test: Test B postemergence herbicide test; type: in vivo, Avena fatua; settings: scale 0 (no effect) to 100 (complete control)
Outline: as §4

[22] = test system: lambsquarters; test: Test B pre-/postemergence herbicide test; type: in vivo, Chenopodium album
Outline: as §2

[23] = test system: large crabgrass; test: Test A pre-/postemergence herbicide test; type: in vivo, Digitaria sanguinalis
Outline: as §1

[24] = test system: giant foxtail; test: Test B pre-/postemergence herbicide test; type: in vivo, Setaria faberi
Outline: as §2

[25] = Postemergence, 500 g ai/ha, 0 to 100 scale, 0 no effect, 100 complete control
[26] = Postemergence, 2000 g ai/ha, 0 to 100 scale, 0 no effect, 100 complete control
[27] = Preemergence, 500 g ai/ha, visual rating, 0 to 100 scale (0 no effect, 100 complete control)
[28] = Preemergence, 2000 g ai/ha, 0 to 100 scale, 0 no effect, 100 complete control
[29] = 500 g ai/ha, visual rating 0-100, 0 no effect, 100 complete control, preemergence
[30] = Postemergence, 500 g ai/ha, visual rating after 13 to 15 days, scale 0 (no effect) to 100 (complete control)
[31] = postemergence, 125 g ai/ha, visual rating, scale 0 (no effect) to 100 (complete control)
[32] = preemergence, 125 g ai/ha, 0 to 100 scale, 0 is no effect, 100 is complete control
[33] = Postemergence, 500 g ai/ha, visual rating after 13 to 15 days
[34] = postemergence, 125 g ai/ha, visual rating

CCn1nc(C(C)(C)C)cc1C(=O)Nc1cccc(C(=O)OCC2CC2)c1C [Compound 93]
Pigweed plant response rating [1, 25]: 20
Plant response rating, Pigweed [1, 26]: 30
Pigweed plant response rating [1, 27]: 40
Pigweed plant response rating [1, 28]: 70
Plant response rating, Pigweed [2, 29]: 70
Plant response rating, Pigweed [2, 30]: 30
Pigweed plant response rating [2, 31]: 10
Plant response rating, Pigweed [2, 32]: 0
Plant response rating, Rice ([3]; 500 g ai/ha, visual rating 0-100, 0 no effect, 100 complete control): 0
Plant response rating, Rice ([3]; 125 g ai/ha, 0 to 100 scale, 0 is no effect, 100 is complete control): 0
Plant response rating, Cocklebur [4, 29]: 0
Plant response rating, Cocklebur [4, 30]: 50
Cocklebur plant response rating [4, 31]: 50
Plant response rating, Cocklebur [4, 32]: 0
Plant response rating, Corn [5, 29]: 10
Plant response rating, Corn [5, 30]: 20
Corn plant response rating [5, 31]: 10
Plant response rating, Corn [5, 32]: 10
Barnyardgrass plant response rating [6, 25]: 20
Plant response rating, Barnyardgrass [6, 26]: 25
Barnyardgrass plant response rating [6, 27]: 25
Barnyardgrass plant response rating [6, 28]: 40
Foxtail, Giant plant response rating [7, 25]: 10
Plant response rating, Foxtail, Giant [7, 26]: 10
Foxtail, Giant plant response rating [7, 27]: 35
Foxtail, Giant plant response rating [7, 28]: 60
Plant response rating, Wheat [8, 33]: 10
Wheat plant response rating [8, 34]: 10
Ducksalad plant response rating [9]: 10
Plant response rating, Morningglory [10, 29]: 10
Plant response rating, Morningglory [10, 30]: 40
Morningglory plant response rating [10, 31]: 10
Plant response rating, Morningglory [10, 32]: 0
Rice plant response rating [11]: 20
Plant response rating, Barnyardgrass [12, 29]: 20
Plant response rating, Barnyardgrass [12, 30]: 10
Barnyardgrass plant response rating [12, 31]: 10
Plant response rating, Barnyardgrass [12, 32]: 0
Morningglory plant response rating [13, 25]: 5
Plant response rating, Morningglory [13, 26]: 10
Morningglory plant response rating [13, 27]: 5
Morningglory plant response rating [13, 28]: 20
Sedge, Umbrella plant response rating [14]: 70
Plant response rating, Crabgrass, Large [15, 29]: 20
Plant response rating, Crabgrass, Large [15, 30]: 10
Crabgrass, Large plant response rating [15, 31]: 10
Plant response rating, Crabgrass, Large [15, 32]: 10
Velvetleaf plant response rating [16, 25]: 10
Plant response rating, Velvetleaf [16, 26]: 15
Velvetleaf plant response rating [16, 27]: 10
Velvetleaf plant response rating ([16]; Preemergence, 2000 g ai/ha, visual rating, 0 to 100 scale (0 no effect, 100 complete control)): 25
Plant response rating, Surinam Grass [17, 29]: 0
Plant response rating, Surinam Grass [17, 30]: 10
Surinam Grass plant response rating [17, 31]: 10
Plant response rating, Surinam Grass [17, 32]: 0
Plant response rating, Blackgrass [18, 33]: 10
Blackgrass plant response rating [18, 34]: 10
Barnyardgrass plant response rating [19]: 0
Plant response rating, Velvetleaf [20, 29]: 10
Plant response rating, Velvetleaf [20, 30]: 10
Velvetleaf plant response rating [20, 31]: 10
Plant response rating, Velvetleaf [20, 32]: 0
Plant response rating, Oat, Wild [21, 33]: 10
Oat, Wild plant response rating [21, 34]: 10
Plant response rating, Lambsquarters [22, 29]: 70
Plant response rating, Lambsquarters [22, 30]: 90
Lambsquarters plant response rating [22, 31]: 60
Plant response rating, Lambsquarters [22, 32]: 0
Crabgrass, Large plant response rating [23, 25]: 10
Plant response rating, Crabgrass, Large [23, 26]: 15
Crabgrass, Large plant response rating [23, 27]: 35
Crabgrass, Large plant response rating [23, 28]: 70
Plant response rating, Foxtail, Giant [24, 29]: 30
Plant response rating, Foxtail, Giant [24, 30]: 10
Foxtail, Giant plant response rating [24, 31]: 10
Plant response rating, Foxtail, Giant [24, 32]: 10
